Values of other authors as cited in article PMC4942611, “Promising Tools in Prostate Cancer Research: Selective Non-Steroidal Cytochrome P450 17A1 Inhibitors” (Scientific Reports, 2016).
Where two headings read alike, the source gives them in different places.

Test system: CYP17A1
Parameters: method as in PMID 24775307
Conditions: cited from earlier work

## CC(C)[C@](O)(c1ccc2cc(OC(F)F)c(OC(F)F)cc2c1)c1c[nH]nn1 [VT-464]
read-out: IC50 hydroxylase step
  IC50: 670 nM
read-out: IC50 lyase step
  IC50: 69 nM
